The values that follow come from PubChem BioAssay (NCI).

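Values below derive from 48-hour exposures of cells grown in 96-well plates, with endpoints linearly interpolated between the two concentrations bracketing the appropriate inhibition level. The concentration for full growth arrest is given as TGI.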

Holding throughout (assay): DTP human tumour cell line panel, 48 h
Test [1] has as its system SN12C renal.
Test [2] concerns OVCAR-4 ovarian.
Test [3] deals with SK-MEL-5 melanoma.
For test [4], the system named is HCT-116 colon.
Test [5] concerns DU-145 prostate.
In test [6] the test system is COLO 205 colon.
The subject of test [7] is UO-31 renal.
In test [8] the test system is SK-MEL-2 melanoma.
Test [9] deals with HT29 colon.
Test [10] concerns SW-620 colon.
The subject of test [11] is UACC-62 melanoma.
For test [12], the system named is SNB-19 CNS.
Test [13] concerns PC-3 prostate.

By TGI is commonly meant the concentration giving total growth inhibition. Low values mean more potent growth arrest, high ones less potent growth arrest. `COc1ccccc1/[N+]([O-])=C/c1ccccc1OC(=S)S`: the TGI in test [1] was greater than 100 µM; in test [2] it was greater than 100 µM; in test [3], greater than 100 µM; in test [4], greater than 100 µM; in [5] it was greater than 100 µM; in test [6], 86 µM. Further, the TGI in test [7] was greater than 100 µM; in test [8] it was 80.2 µM; in test [9], greater than 100 µM; in [10], greater than 100 µM; in test [11], greater than 100 µM; in test [12] it was greater than 100 µM. In addition, the TGI in test [13] is greater than 100 µM.
For the molecule `COc1ccc2c(c1)nc1n2C(c2c(F)cccc2F)SC1` (configuration not stated), the TGI in test [1] is greater than 100 µM; in test [2], greater than 100 µM; in [3], 56.4 µM; in test [4] it was greater than 100 µM; in test [5], greater than 100 µM; in test [6], greater than 100 µM. Moreover, the TGI in test [7] is greater than 100 µM; in test [8] it was 96.7 µM; in test [9], greater than 100 µM; in test [10], greater than 100 µM; in test [11] it was greater than 100 µM; in test [12], greater than 100 µM. The TGI in test [13] was greater than 100 µM.
Consider `Cc1ccc([N+](=O)[O-])cc1S(=O)(=O)Nc1ccc(C2=NOC(c3ccccc3)C2)cc1` (configuration not stated), for which the TGI is 71.7 µM in test [1]; 11.8 µM in test [2]; 20.1 µM in test [3]; 24.1 µM in test [4]; 33.9 µM in test [5]; 33.8 µM in test [6]. The TGI came out at 72.1 µM in [7]; 21.3 µM in test [8]; 43.8 µM in test [9]; 59.1 µM in test [10]; 18.3 µM in test [11]; 55.5 µM in test [12]. This molecule also showed a TGI in test [13] greater than 100 µM.
In the case of `COC(=O)C1=C(O)C(C(=O)OC)[C@]2(O)[C@H](C(=O)OC)[C@H]1C[C@@H](c1ccc(Cl)cc1Cl)[C@H]2C(=O)OC` (some centres not stated), the concentration for total growth inhibition (TGI) in test [1] stood at 22.2 µM; in test [2] it was 67.6 µM; in test [3] it was 16.8 µM; in test [4], 18.9 µM; in [5], 25.7 µM; in [6], 20.9 µM. The TGI stood at 21.1 µM in test [7]; 20.3 µM in test [8]; 27.4 µM in [9]; 57 µM in [10]; 35.3 µM in test [11]; 24.3 µM in test [12]. Further, the TGI in test [13] stood at 23.5 µM.
With `CC(=O)N1c2ccccc2C2=NN=C(N(C)C)SC21` (configuration not stated), the TGI amounted to 6.93 µM in test [1]; 29.8 µM in test [2]; 10.1 µM in test [4]; 7.45 µM in test [5]; 12.9 µM in test [6]; 9.89 µM in [7]. For the same molecule, the TGI in [8] came out at 6.36 µM; in test [9], 20.5 µM; in [10] it was 20 µM; in test [12], 23.5 µM; in test [13], 18 µM.
Consider `COc1ccc(C[C@H]2NC[C@H](OC(C)=O)[C@H]2OC(C)=O)cc1`, for which the TGI in test [1] was 0.752 µM; in test [2], 0.706 µM; in test [3] it was 0.345 µM; in [4] it was 0.685 µM; in test [5], 0.903 µM; in [6], 0.311 µM. For the same molecule, the TGI in test [7] was found to be 0.371 µM; in test [8], 0.627 µM; in test [9] it was 1.04 µM; in test [10] it was 1.14 µM; in test [11] it was 4.23 µM; in [12] it was 0.446 µM. In test [13], this molecule displayed a TGI of 1.08 µM.
As for `COC1/C=C/C(C)C(C(C)C(OC)C(C)CCC(=O)C(C)C(CC(=O)O)OC)OC(=O)/C=C/C=C(\C)CC(OC)C(OC)C2=CC(=O)O[C@@H](C(C)C(OC)CC(OC)/C=C/C(C)C(O)C1)[C@H]2O` (some centres not stated), the TGI is greater than 1.07 µM in test [1]; greater than 1.07 µM in test [2]; 0.242 µM in test [3]; 0.227 µM in [4]; greater than 1.07 µM in test [5]; greater than 1.07 µM in test [6]. For the same molecule, the TGI in test [7] was 0.15 µM; in test [8], 0.625 µM; in test [9], 0.0701 µM; in test [10], greater than 1.07 µM; in test [11] it was greater than 1.07 µM; in test [12], greater than 1.07 µM. Also, the TGI in test [13] is greater than 1.07 µM.
As for `CNc1nc2c(C)ccc3nc(N(C)C)nc-3c2n1C`, the TGI in test [1], in test [2], in [3], in test [4], in [5] and in test [6] was greater than 10 µM in each case. For the same molecule, the total growth inhibition concentration (TGI) in test [7], in test [8], in [9], in test [10], in [12] and in test [13] was greater than 10 µM each time.
On to `O=S(=O)(O)c1ccc(N=Nc2c(O)ccc3ccccc23)cc1`, for which the TGI in test [1], in test [2], in test [3], in test [4], in test [5] and in test [6] was greater than 100 µM each time. Also, the TGI in [7], in [8], in [9], in test [10], in test [11] and in test [12] was greater than 100 µM throughout. In addition, in [13], the TGI is greater than 100 µM.
Take `CCCCC1=C(C(=O)N2CCOCC2)C2(OCCO2)C1Cl` (configuration not stated): the TGI in test [1] was 50.1 µM; in test [2], greater than 100 µM; in test [3], 39.6 µM; in [4] it was greater than 100 µM; in [5], greater than 100 µM; in test [6], 54.3 µM. For the same molecule, the TGI is greater than 100 µM in test [7]; 51.6 µM in test [8]; 78.6 µM in test [9]; 89.5 µM in test [10]; greater than 100 µM in test [11]; greater than 100 µM in test [12]. Also, the TGI in [13] was greater than 100 µM.
